Like-named read-outs stand apart in the source and are kept apart here.
Tested on: Angiotensin II (AII) vasopressor response
Test: AII Challenge: antagonism of angiotensin II vasopressor response in conscious spontaneously hypertensive rats
Format: in vivo, rat (male okamoto-Aoki SHR)
Details: for inhibition in vivo at 3 mg/kg: Rattus norvegicus, read-out: Inhibition; for inhibition in vivo at 3 mg/kg / Average Change: SHR n=2; for Change: single SHR
Summary of the method: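 Conscious male SHR (16–20 weeks, ~330 g) cannulated under local procaine, blood pressure recorded via transducer. Angiotensin II (human) 0.05 and 0.1 ug/kg i.v. given before and after test compound dosed i.v., i.p. or orally; response measured as rise in systolic pressure (mmHg).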

[1] = 3 mg/kg I.V., AII 0.05 mcg/kg IV, 30 min post dose
[2] = 3 mg/kg I.V., AII 0.05 mcg/kg IV, 60 min post dose
[3] = 3 mg/kg I.V., AII 0.05 mcg/kg IV, 90 min post dose
[4] = 3 mg/kg I.V., AII 0.1 mcg/kg IV, 30 min post dose
[5] = 3 mg/kg I.V., AII 0.1 mcg/kg IV, 60 min post dose
[6] = 3 mg/kg I.V., AII 0.1 mcg/kg IV, 90 min post dose
[7] = 3 mg/kg I.V., AII 0.1 mcg/kg IV, 120 min post dose
[8] = 3 mg/kg P.O., AII 0.1 mcg/kg IV, 180 min post dose

For `CCCCc1nc2ccc([C@@H]3[C@@H]4C(=O)OC[C@@H]4ON3Cc3ccccc3)cc2c(=O)n1Cc1ccc(-c2ccccc2-c2nnn[nH]2)cc1` (relative stereo) [Example 56], the inhibition in vivo at 3 mg/kg (iv, 0.5 h, 3 mg/kg I.V., AII 0.05 mcg/kg IV, 30 min post dose) was 100%, the inhibition in vivo at 3 mg/kg (iv, 0.5 h, 3 mg/kg I.V., AII 0.1 mcg/kg IV, 30 min post dose) was 100% and the inhibition in vivo at 3 mg/kg (iv, 1 h, 3 mg/kg I.V., AII 0.05 mcg/kg IV, 60 min post dose) was 100%. For the same compound, the inhibition in vivo at 3 mg/kg (iv, 1 h, 3 mg/kg I.V., AII 0.1 mcg/kg IV, 60 min post dose) was 89%, the inhibition in vivo at 3 mg/kg (iv, 2 h, 3 mg/kg I.V., AII 0.05 mcg/kg IV, 120 min post dose) was 77% and the inhibition in vivo at 3 mg/kg (iv, 2 h, 3 mg/kg I.V., AII 0.1 mcg/kg IV, 120 min post dose) was 78%. It also gave an inhibition in vivo at 3 mg/kg (iv, 3 h, 3 mg/kg I.V., AII 0.05 mcg/kg IV, 180 min post dose) of 77%, an inhibition in vivo at 3 mg/kg (iv, 3 h, 3 mg/kg I.V., AII 0.1 mcg/kg IV, 180 min post dose) of 76% and an inhibition in vivo at 3 mg/kg (iv, 4 h, 3 mg/kg I.V., AII 0.05 mcg/kg IV, 240 min post dose) of 72%. The inhibition in vivo at 3 mg/kg (iv, 4 h, 3 mg/kg I.V., AII 0.1 mcg/kg IV, 240 min post dose) was 56%, the inhibition in vivo at 3 mg/kg (iv, 5 h, 3 mg/kg I.V., AII 0.05 mcg/kg IV, 300 min post dose) was 65% and the inhibition in vivo at 3 mg/kg (iv, 5 h, 3 mg/kg I.V., AII 0.1 mcg/kg IV, 300 min post dose) was 67%. It also gave an inhibition in vivo at 3 mg/kg (iv, […], 3 mg/kg I.V., AII 0.05 mcg/kg IV, 90 min post dose) of 100%, an inhibition in vivo at 3 mg/kg (iv, […], 3 mg/kg I.V., AII 0.1 mcg/kg IV, 90 min post dose) of 89% and an inhibition in vivo at 3 mg/kg (po, 0.5 h, 3 mg/kg P.O., AII 0.05 mcg/kg IV, 30 min post dose) of 31%. For the same compound, the inhibition in vivo at 3 mg/kg (po, 0.5 h, 3 mg/kg P.O., AII 0.1 mcg/kg IV, 30 min post dose) was 11%, the inhibition in vivo at 3 mg/kg (po, 1 h, 3 mg/kg P.O., AII 0.05 mcg/kg IV, 60 min post dose) was 18% and the inhibition in vivo at 3 mg/kg (po, 1 h, 3 mg/kg P.O., AII 0.1 mcg/kg IV, 60 min post dose) was 19%. The inhibition in vivo at 3 mg/kg (po, 2 h, 3 mg/kg P.O., AII 0.05 mcg/kg IV, 120 min post dose) was 36%, the inhibition in vivo at 3 mg/kg (po, 2 h, 3 mg/kg P.O., AII 0.1 mcg/kg IV, 120 min post dose) was 27% and the inhibition in vivo at 3 mg/kg (po, 3 h, 3 mg/kg P.O., AII 0.05 mcg/kg IV, 180 min post dose) was -9%. It also gave an inhibition in vivo at 3 mg/kg (po, 3 h, 3 mg/kg P.O., AII 0.1 mcg/kg IV, 180 min post dose) of 3%, an inhibition in vivo at 3 mg/kg (po, […], 3 mg/kg P.O., AII 0.05 mcg/kg IV, 90 min post dose) of 36% and an inhibition in vivo at 3 mg/kg (po, […], 3 mg/kg P.O., AII 0.1 mcg/kg IV, 90 min post dose) of 19%. For the same compound, the “Average Change” value [1] was 0 mmHg, the “Average Change” value [2] was 0 mmHg and the “Average Change” value [3] was 0 mmHg. The “Average Change” value (3 mg/kg I.V., AII 0.05 mcg/kg IV, 120 min post dose) was 7.5 mmHg, the “Average Change” value (3 mg/kg I.V., AII 0.05 mcg/kg IV, 180 min post dose) was 7.5 mmHg and the “Average Change” value (3 mg/kg I.V., AII 0.05 mcg/kg IV, 240 min post dose) was 9 mmHg. The “Average Change” value (3 mg/kg I.V., AII 0.05 mcg/kg IV, 300 min post dose) was 11.5 mmHg, the “Average Change” value [4] was 0 mmHg and the “Average Change” value [5] was 5 mmHg. For the same compound, the “Average Change” value [6] was 5 mmHg, the “Average Change” value [7] was 10 mmHg and the “Average Change” value (3 mg/kg I.V., AII 0.1 mcg/kg IV, 180 min post dose) was 11 mmHg. For the same compound, the “Average Change” value (3 mg/kg I.V., AII 0.1 mcg/kg IV, 240 min post dose) was 20 mmHg, the “Average Change” value (3 mg/kg I.V., AII 0.1 mcg/kg IV, 300 min post dose) was 15 mmHg and the “Average Change” value (3 mg/kg P.O., AII 0.05 mcg/kg IV, 30 min post dose) was 19 mmHg. For the same compound, the “Average Change” value (3 mg/kg P.O., AII 0.05 mcg/kg IV, 60 min post dose) was 22.5 mmHg, the “Average Change” value (3 mg/kg P.O., AII 0.05 mcg/kg IV, 90 min post dose) was 17.5 mmHg and the “Average Change” value (3 mg/kg P.O., AII 0.05 mcg/kg IV, 120 min post dose) was 17.5 mmHg. For the same compound, the “Average Change” value (3 mg/kg P.O., AII 0.05 mcg/kg IV, 180 min post dose) was 30 mmHg, the “Average Change” value (3 mg/kg P.O., AII 0.1 mcg/kg IV, 30 min post dose) was 27.5 mmHg and the “Average Change” value (3 mg/kg P.O., AII 0.1 mcg/kg IV, 60 min post dose) was 25 mmHg. For the same compound, the “Average Change” value (3 mg/kg P.O., AII 0.1 mcg/kg IV, 90 min post dose) was 25 mmHg, the “Average Change” value (3 mg/kg P.O., AII 0.1 mcg/kg IV, 120 min post dose) was 22.5 mmHg and the “Average Change” value [8] was 30 mmHg. The Change [1] was 0 mmHg, the Change [2] was 0 mmHg and the Change [3] was 0 mmHg. For the same compound, the Change [4] was 0 mmHg, the Change [5] was 5 mmHg and the Change [6] was 5 mmHg. It also gave a Change [7] of 10 mmHg and a Change [8] of 30 mmHg.

From patent US5294611A, “Angiotensin II receptor blocking 2,3,6 substituted quinazolinones” (American Cyanamid Company, priority 1993, dated 1994)
